According to US10155767B2, “Therapeutic agent of acute myeloid leukemia containing 1,3,7-trisubstituted 3,4-dihydropyrimido[4,5-D]pyrimidine-2(1H)-one derivatives” (KOREA INSTITUTE OF SCIENCE AND TECHNOLOGY, priority 2016, dated 2018):

How the values were obtained:
U937 (N-Ras WT) = assay: Proliferation inhibitory activity, U937 cell line; type: cell-based; conditions: Homo sapiens, U-937; U937 (wt-NRAS) cell line; read-out: Proliferation inhibitory ability (GI50, μM) U937 (N-Ras WT)
Method: (§1) With respect to each of the compounds synthesized in Synthesis Examples, GI50 values were calculated by measuring proliferation inhibitory abilities for mt-NRAS (G12D) Ba/F3, U937 (wt-NRAS), and OCI-AML3 (mt-NRAS) cell lines.

ACK1 = ACK1 (Homo sapiens, UniProt Q07912); assay: Kinase inhibitory activity, ACK1; type: biochemical
ACK1, sequence (Q07912 whole entry): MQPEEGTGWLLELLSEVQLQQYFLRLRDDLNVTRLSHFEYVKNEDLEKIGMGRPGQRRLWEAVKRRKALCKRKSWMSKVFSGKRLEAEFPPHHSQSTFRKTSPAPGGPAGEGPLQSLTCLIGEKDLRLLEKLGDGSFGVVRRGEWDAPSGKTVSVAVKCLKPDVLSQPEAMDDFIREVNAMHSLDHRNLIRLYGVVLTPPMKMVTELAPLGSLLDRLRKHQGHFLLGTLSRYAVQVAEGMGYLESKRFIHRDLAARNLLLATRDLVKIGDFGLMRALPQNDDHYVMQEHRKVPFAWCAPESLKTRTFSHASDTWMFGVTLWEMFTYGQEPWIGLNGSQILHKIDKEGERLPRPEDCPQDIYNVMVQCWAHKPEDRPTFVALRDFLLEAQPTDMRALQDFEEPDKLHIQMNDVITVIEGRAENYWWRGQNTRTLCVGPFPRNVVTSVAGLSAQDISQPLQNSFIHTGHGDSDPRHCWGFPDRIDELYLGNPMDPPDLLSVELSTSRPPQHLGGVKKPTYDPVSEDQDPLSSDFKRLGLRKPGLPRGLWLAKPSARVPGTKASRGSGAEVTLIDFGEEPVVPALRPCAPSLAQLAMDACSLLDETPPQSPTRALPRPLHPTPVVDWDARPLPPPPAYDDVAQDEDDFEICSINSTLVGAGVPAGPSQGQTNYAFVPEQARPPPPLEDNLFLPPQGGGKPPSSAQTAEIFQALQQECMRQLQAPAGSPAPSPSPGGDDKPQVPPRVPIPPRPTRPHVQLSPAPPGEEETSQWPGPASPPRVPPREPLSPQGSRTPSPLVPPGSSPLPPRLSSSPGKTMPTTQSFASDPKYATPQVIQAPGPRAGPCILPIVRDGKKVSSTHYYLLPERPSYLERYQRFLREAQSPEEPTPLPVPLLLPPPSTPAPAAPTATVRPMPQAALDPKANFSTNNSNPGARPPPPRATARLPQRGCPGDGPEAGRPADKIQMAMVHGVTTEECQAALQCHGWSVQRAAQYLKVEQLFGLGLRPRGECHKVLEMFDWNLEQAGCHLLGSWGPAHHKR
Method: (§2) With respect to the compounds of the present invention, IC50 values were calculated by measuring inhibitory ability for two kinases of GCK and ACK1.

GCK = biological target: T1, GCK (Homo sapiens, UniProt Q12851); assay: Kinase inhibitory activity, GCK; type: biochemical
T1 sequence (Q12851 1-820): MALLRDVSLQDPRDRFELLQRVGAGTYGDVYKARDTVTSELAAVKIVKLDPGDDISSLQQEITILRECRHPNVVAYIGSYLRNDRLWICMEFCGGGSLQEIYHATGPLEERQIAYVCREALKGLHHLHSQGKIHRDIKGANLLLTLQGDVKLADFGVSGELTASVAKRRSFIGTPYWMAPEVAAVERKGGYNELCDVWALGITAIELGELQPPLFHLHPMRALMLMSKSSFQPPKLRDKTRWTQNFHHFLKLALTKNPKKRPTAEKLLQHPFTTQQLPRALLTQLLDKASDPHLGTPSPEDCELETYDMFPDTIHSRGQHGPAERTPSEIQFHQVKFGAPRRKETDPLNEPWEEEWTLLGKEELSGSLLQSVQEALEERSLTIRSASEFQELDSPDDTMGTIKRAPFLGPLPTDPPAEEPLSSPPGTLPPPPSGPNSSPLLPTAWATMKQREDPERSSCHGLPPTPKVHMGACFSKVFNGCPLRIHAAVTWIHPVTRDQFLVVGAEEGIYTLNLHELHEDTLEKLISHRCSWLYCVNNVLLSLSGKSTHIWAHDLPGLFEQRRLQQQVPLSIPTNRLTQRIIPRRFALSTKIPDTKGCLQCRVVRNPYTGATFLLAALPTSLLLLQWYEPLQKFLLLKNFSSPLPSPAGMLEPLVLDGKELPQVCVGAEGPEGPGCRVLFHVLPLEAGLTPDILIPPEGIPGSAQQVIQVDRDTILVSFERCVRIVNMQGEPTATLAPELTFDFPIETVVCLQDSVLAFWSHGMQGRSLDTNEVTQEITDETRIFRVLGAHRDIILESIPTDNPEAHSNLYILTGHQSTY
Method: as §2

Ba/F3 (N-Ras G12D) = assay: Proliferation inhibitory activity, mt-NRAS (G12D) Ba/F3 cell line; type: cell-based; conditions: Mus musculus, BaF3, read-out: Proliferation inhibitory ability (GI50, μM) Ba/F3 (N-Ras G12D)
Method: as §1

OCI-AML3 (N-RasQ61L) = assay: Proliferation inhibitory activity, OCI-AML3 cell line; type: cell-based; conditions: Homo sapiens, OCI-AML-3; OCI-AML3 (mt-NRAS) cell line; read-out: Proliferation inhibitory ability (GI50, μM) OCI-AML3 (N-RasQ61L)
Method: as §1

Structure (SMILES)	GI50 (U937 (N-Ras WT)) [µM]	IC50 (ACK1) [nM]	IC50 (GCK) [nM]	GI50 (Ba/F3 (N-Ras G12D)) [µM]	GI50 (OCI-AML3 (N-RasQ61L)) [µM]
CCN1CCN(c2ccc(Nc3ncc4c(n3)N(C)C(=O)N(c3cc(NC(=O)c5cccc(C(F)(F)F)c5)ccc3C)C4)cn2)CC1 [Compound 1, N-(3-(7-((6-(4-ethylpiperazin-1-yl)pyridin-3-yl)amino)-1-methyl-2-oxo-1,4-dihydropyrimido[4,5-d]pyrimidin-3-(2H)-yl)-4-methylphenyl)-3-(trifluoromethyl)benzamide]	1.2 to 2	< 30	< 30	< 0.2	< 0.2
CCN1CCN(c2cccc(Nc3ncc4c(n3)N(C)C(=O)N(c3cc(NC(=O)c5cccc(C(F)(F)F)c5)ccc3C)C4)c2)CC1 [Compound 2, N-(3-(7-((3-(4-ethylpiperazin-1-yl)phenyl)amino)-1-methyl-2-oxo-1,4-dihydropyrimido[4,5-d]pyrimidin-3-(2H)-yl)-4-methylphenyl)-3-(trifluoromethyl)benzamide]	< 0.2	45 to 100	< 30	< 0.2	< 0.2
Cc1ccc(NC(=O)c2cccc(C(F)(F)F)c2)cc1N1Cc2cnc(Nc3cnn(C)c3)nc2N(C)C1=O [Compound 3]	0.7 to 1.2	< 30	< 30	< 0.2	0.2 to 0.7
Cc1ccc(NC(=O)c2cccc(C(F)(F)F)c2)cc1N1Cc2cnc(Nc3ccccc3)nc2N(C)C1=O [Compound 4, N-(4-methyl-3-(1-methyl-2-oxo-7-(phenylamino)-1,4-dihydropyrimido[4,5-d]pyrimidin-3(2H)-yl)phenyl)-3-(trifluoromethyl)benzamide]	≥ 2	30 to 45	45 to 100	0.2 to 0.7	0.2 to 0.7
Cc1ccc(NC(=O)c2cccc(C(F)(F)F)c2)cc1N1Cc2cnc(NC3CCCCC3)nc2N(C)C1=O [Compound 5, N-(3-(7-(cyclohexylamino)-1-methyl-2-oxo-1,4-dihydropyrimido[4,5-d]pyrimidin-3(2H)-yl)-4-methylphenyl)-3-(trifluoromethyl)benzamide]	≥ 2	45 to 100	≥ 300	0.2 to 0.7	≥ 2
Cc1ccc(NC(=O)c2cccc(C(F)(F)F)c2)cc1N1Cc2cnc(NCCO)nc2N(C)C1=O [Compound 6, N-(3-(7-((2-hydroxylethyl)amino)-1-methyl-2-oxo-1,4-dihydropyrimido[4,5-d]pyrimidin-3(2H)-yl)-4-methylphenyl)-3-(trifluoromethyl)benzamide]	≥ 2	< 30	30 to 45	≥ 2	0.7 to 1.2
Cc1ccc(NC(=O)c2cccc(C(F)(F)F)c2)cc1N1Cc2cnc(NC3CC3)nc2N(C)C1=O [Compound 7, N-(3-(7-(cyclopropylamino)-1-methyl-2-oxo-1,4-dihydropyrimido[4,5-d]pyrimidin-3(2H)-yl)-4-methylphenyl)-3-(trifluoromethyl)benzamide]	≥ 2	30 to 45	30 to 45	0.2 to 0.7	0.2 to 0.7
